# Measured values: patent US20230123334A1, “AMINO LIPID COMPOUND, PREPARATION METHOD THEREFOR, AND APPLICATION THEREOF” (SHENZHEN SHENXIN BIOTECHNOLOGY CO., LTD., priority 2020, published 2023)
# Columns and labels:
# Format in all cases: cell-based
# Hela cells [1] = assay: Transfection of Hela cell line, DNA vectors; conditions: 75 ng plasmid DNA, GFP cells / total cells
# Procedure, shortened: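 Amino lipid/DOPE liposomes in sodium acetate pH 5.6 were complexed with 75 ng psin-EGFP-IRES-Puro plasmid for 30 min at room temperature, then mixed with 3-5×10^4 Hela cells in DMEM/10% FBS at 37° C. Hoechst stain after 20-24 h, imaging after a further 20-24 h. Efficiency = GFP-positive cells / total nuclei.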
# Hela cells [2] = assay: Transfection of Hela cell line, mRNA vectors; conditions: 50 ng EGFP mRNA per well
# Procedure, shortened: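 HeLa cells in DMEM with 10% FBS transfected with 50 ng EGFP mRNA per well. Readout is percentage of GFP-positive cells among total cells counted by Hoechst nuclear stain; Lipofectamine2000 served as positive control.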
# MCF7 cells [3] = assay: Transfection of MCF7 cell line, DNA vectors; parameters: concentration or dose not given beside the values; conditions: plasmid DNA, GFP cells / total cells
# Procedure: (§1) Cell line: MCF7 cells (ATCC HTB-22)
# Medium DMEM supplemented with […] fetal bovine serum
# (§2) Screening: cell transfection on 96-well plates
# Detection (readout): percentage of the number of GFP fluorescent cells relative to the total number of cells (the total number of cells was determined using nucleus dye Hoechst). Lipofectamine2000 was used as the positive control, according to the manufacturer's instructions.
# Method: the experimental method was basically the same with Example 4.
# MCF7 cells [4] = assay: Transfection of MCF7 cell line, mRNA vectors; conditions: 50 ng EGFP mRNA per well
# Procedure: as §1
# Medium: DMEM supplemented with 10 fetal bovine serum (Invitrogen)
# as §2
# Detection (readout): percentage of the number of GFP fluorescent cells relative to the total number of cells (the total number of cells was determined using nucleus dye Hoechst). Lipofectamine2000 (Invitrogen) was used as the positive control.
# Method: the experimental method was basically the same with Example 4, and the mass of EGFP mRNA (TriLink) for transfection was 50 ng per well.
SMILES,Absolute DNA transfection efficiency in Hela cells (Hela cells [1]),Absolute mRNA transfection efficiency in Hela cells (Hela cells [2]),Absolute DNA transfection efficiency in MCF7 cells (MCF7 cells [3]),Absolute mRNA transfection efficiency in MCF7 cells (MCF7 cells [4])
CCCCCCCCCCCCNc1nc(NCCCN2CCOCC2)nc(SCCCCCCCC)n1 [Compound S8N12D8],8.4%,8.4%,2.1%,0.3%
CCCCCCCCCCCCNc1nc(NCCCN2CCN(C)CC2)nc(SCCCCCCCC)n1 [Compound S8N12D9],24.4%,24.1%,32.0%,16.4%
CCCCCCCCCCCCNc1nc(NCC2CCN(C)CC2)nc(SCCCCCCCC)n1 [Compound S8N12D10],22.6%,22.6%,40.6%,23.1%
CCCCCCCCCCCCCNc1nc(NCCN2CCCC2)nc(SCCCCCCCC)n1 [Compound S8N13D3],15.7%,15.7%,19.9%,18.1%
CCCCCCCCCCCCCNc1nc(NCCN2CCN(C)CC2)nc(SCCCCCCCC)n1 [Compound S8N13D5],14.7%,14.7%,24.5%,9.2%
CCCCCCCCCCCCCNc1nc(NCCCN(C)C)nc(SCCCCCCCC)n1 [Compound S8N13D6],27.6%,27.6%,32.2%,33.4%
CCCCCCCCCCCCCNc1nc(NCCCN2CCOCC2)nc(SCCCCCCCC)n1 [Compound S8N13D8],6.6%,6.6%,0.9%,0.4%
CCCCCCCCCCCCCNc1nc(NCCCN2CCN(C)CC2)nc(SCCCCCCCC)n1 [Compound S8N13D9],13.9%,13.4%,25.8%,13.3%
CCCCCCCCCCCCCNc1nc(NCC2CCN(C)CC2)nc(SCCCCCCCC)n1 [Compound S8N13D10],9.5%,9.5%,41.7%,23.0%
CCCCCCCCCNc1nc(NCCN2CCCC2)nc(SCCCCCCCCC)n1 [Compound S9N9D3],27.4%,27.4%,8.6%,12.1%
CCCCCCCCCNc1nc(NCCN2CCN(C)CC2)nc(SCCCCCCCCC)n1 [Compound S9N9D5],23.9%,23.9%,21.2%,8.3%
CCCCCCCCCNc1nc(NCCCN(C)C)nc(SCCCCCCCCC)n1 [Compound S9N9D6],30.3%,30.3%,11.0%,30.7%
CCCCCCCCCNc1nc(NCCCN2CCOCC2)nc(SCCCCCCCCC)n1 [Compound S9N9D8],7.4%,7.4%,7.8%,2.6%
CCCCCCCCCNc1nc(NCCCN2CCN(C)CC2)nc(SCCCCCCCCC)n1 [Compound S9N9D9],25.6%,25.6%,42.3%,21.0%
